# Results reported in patent US20260285850A1, “SUBSTITUTED OXAZOLIDINONES AND IMIDAZOLINONES AS HERBICIDES” (FMC CORPORATION, priority 2023, published 2026).
# Assays:
# Assay type in all cases: in vivo
# [1] = system: sedge, umbrella (small-flower umbrella sedge, Cyperus difformis); assay: Test B flooded paddy test, visual plant response rating 0-100; details: 250 g ai/ha, Flood, applied to paddy water, evaluated after 13 days
# How it was run: (§1)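 2-leaf plants; flood 3 cm over soil; compound dosed into paddy water; depth kept constant; greenhouse 13 d; visual scoring vs controls. Dash = no result.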
# [2] = system: barnyardgrass (Echinochloa crusgalli); assay: as above; details: 250 g ai/ha, Flood, applied to paddy water, evaluated after 13 days
# How it was run: as §1
# [3] = system: ducksalad (Heteranthera limosa); assay: as above; details: 250 g ai/ha, Flood, applied to paddy water, evaluated after 13 days
# How it was run: as §1
# [4] = system: rice (Oryza sativa); assay: as above; details: 250 g ai/ha, Flood, applied to paddy water, evaluated after 13 days
# How it was run: as §1
# [5] = system: wheat (Triticum aestivum); assay: Test A postemergence application, visual injury rating 0-100
# How it was run: (§2)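 Plants were grown in a loam soil-sand blend and treated with test chemical in a non-phytotoxic solvent mixture containing surfactant, either sprayed on soil preemergence or applied postemergence to 2-10 cm plants. After 10 days in a greenhouse, injury was scored visually against untreated controls, 0 meaning no effect and 100 complete control.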
# [6] = system: ragweed (common ragweed, Ambrosia artemisiifolia); assay: as above
# How it was run: as §2
# [7] = system: kochia (Bassia scoparia); assay: as above
# How it was run: as §2
# [8] = system: blackgrass (Alopecurus myosuroides); assay: as above
# How it was run: as §2
# [9] = system: corn (Zea mays); assay: as above
# How it was run: as §2
# [10] = system: barnyardgrass (Echinochloa crus-galli); assay: as above
# How it was run: as §2
# [11] = system: palmer (palmer amaranth, palmer pigweed, Amaranthus palmeri); assay: as above
# How it was run: as §2
# [12] = system: green foxtail (Setaria viridis); assay: as above
# How it was run: as §2
# [13] = system: soybean (Glycine max); assay: as above
# How it was run: as §2
# [14] = system: ryegrass, Italian (italian ryegrass, Lolium multiflorum); assay: as above
# How it was run: as §2
# [15] = system: oat, wild (wild oat, Avena fatua); assay: as above
# How it was run: as §2
# [16] = system: horseweed (Erigeron canadensis); assay: as above
# How it was run: as §2
# [17] = system: wheat (Triticum aestivum); assay: Test A preemergence soil spray, visual injury rating 0-100; details: 10 days
# How it was run: as §2
# [18] = system: ragweed (common ragweed, Ambrosia artemisiifolia); assay: as above; details: 10 days
# How it was run: as §2
# [19] = system: kochia (Bassia scoparia); assay: as above; details: 10 days
# How it was run: as §2
# [20] = system: blackgrass (Alopecurus myosuroides); assay: as above; details: 10 days
# How it was run: as §2
# [21] = system: corn (Zea mays); assay: as above; details: 10 days
# How it was run: as §2
# [22] = system: barnyardgrass (Echinochloa crus-galli); assay: as above; details: 10 days
# How it was run: as §2
# [23] = system: palmer (palmer amaranth, palmer pigweed, Amaranthus palmeri); assay: as above; details: 10 days
# How it was run: as §2
# [24] = system: green foxtail (Setaria viridis); assay: as above; details: 10 days
# How it was run: as §2
# [25] = system: soybean (Glycine max); assay: as above; details: 10 days
# How it was run: as §2
# [26] = system: ryegrass, Italian (italian ryegrass, Lolium multiflorum); assay: as above; details: 10 days
# How it was run: as §2
# [27] = system: oat, wild (wild oat, Avena fatua); assay: as above; details: 10 days
# How it was run: as §2
# [28] = 62 g ai/ha, postemergence, 10 days, 0 = no effect, 100 = complete control
# [29] = Postemergence, 16 g ai/ha, greenhouse 10 days, 0 no effect, 100 complete control
# [30] = 62 g ai/ha, 0 = no effect, 100 = complete control
smiles,measurement,setting,value
CC(C)OC(=O)C1=CCC(NC(=O)C2(C)CN(c3cc(Cl)cc(Cl)c3)C(=O)O2)C1 (centres unmarked) [Compound 106],"Plant response rating, Sedge, Umbrella (0 to 100 scale, 0 is no effect and 100 is complete control)",[1],98
same,"Plant response rating, Barnyardgrass (0 to 100 scale, 0 is no effect and 100 is complete control)",[2],65
same,"Plant response rating, Ducksalad (0 to 100 scale, 0 is no effect and 100 is complete control)",[3],85
same,"Plant response rating, Rice (0 to 100 scale, 0 is no effect and 100 is complete control)",[4],10
same,Wheat plant response rating (0-100),[5]; [28],0
same,Wheat plant response rating (0 to 100 scale),[5]; [29],0
same,Ragweed plant response rating (0-100),[6]; [28],0
same,Ragweed plant response rating (0 to 100 scale),[6]; [29],0
same,Kochia plant response rating (0-100),[7]; [28],0
same,Kochia plant response rating (0 to 100 scale),[7]; [29],0
same,Blackgrass plant response rating (0-100),[8]; [28],0
same,Blackgrass plant response rating (0 to 100 scale),[8]; [29],0
same,Corn plant response rating (0-100),[9]; [28],0
same,Corn plant response rating (0 to 100 scale),[9]; [29],0
same,Barnyardgrass plant response rating (0-100),[10]; [28],0
same,Barnyardgrass plant response rating (0 to 100 scale),[10]; [29],0
same,"Pigweed, Palmer plant response rating (0-100)",[11]; [28],0
same,"Pigweed, Palmer plant response rating (0 to 100 scale)",[11]; [29],0
same,"Foxtail, Green plant response rating (0-100)",[12]; [28],0
same,"Foxtail, Green plant response rating (0 to 100 scale)",[12]; [29],0
same,Soybean plant response rating (0-100),[13]; [28],0
same,Soybean plant response rating (0 to 100 scale),[13]; [29],0
same,"Ryegrass, Italian plant response rating (0-100)",[14]; [28],0
same,"Ryegrass, Italian plant response rating (0 to 100 scale)",[14]; [29],0
same,"Oat, Wild plant response rating (0-100)",[15]; [28],0
same,"Oat, Wild plant response rating (0 to 100 scale)",[15]; [29],0
same,Horseweed plant response rating (0-100),[16]; [28],0
same,Horseweed plant response rating (0 to 100 scale),[16]; [29],0
same,Wheat plant response rating,"[17]; 16 g ai/ha, 0 to 100 scale",0
same,Wheat plant response rating (0-100),[17]; [30],0
same,Ragweed plant response rating,"[18]; 16 g ai/ha, 0 to 100 scale",0
same,Ragweed plant response rating (0-100),[18]; [30],0
same,Kochia plant response rating,"[19]; 16 g ai/ha, 0 to 100 scale",0
same,Kochia plant response rating (0-100),[19]; [30],0
same,Blackgrass plant response rating,"[20]; 16 g ai/ha, 0 to 100 scale",0
same,Blackgrass plant response rating (0-100),[20]; [30],0
same,Corn plant response rating,"[21]; 16 g ai/ha, 0 to 100 scale",0
same,Corn plant response rating (0-100),[21]; [30],0
same,Barnyardgrass plant response rating,"[22]; 16 g ai/ha, 0 to 100 scale",0
same,Barnyardgrass plant response rating (0-100),[22]; [30],0
same,"Pigweed, Palmer plant response rating","[23]; 16 g ai/ha, 0 to 100 scale",0
same,"Pigweed, Palmer plant response rating (0-100)",[23]; [30],0
same,"Foxtail, Green plant response rating","[24]; 16 g ai/ha, 0 to 100 scale",0
same,"Foxtail, Green plant response rating (0-100)",[24]; [30],0
same,Soybean plant response rating,"[25]; 16 g ai/ha, 0 to 100 scale",0
same,Soybean plant response rating (0-100),[25]; [30],0
same,"Ryegrass, Italian plant response rating","[26]; 16 g ai/ha, 0 to 100 scale",0
same,"Ryegrass, Italian plant response rating (0-100)",[26]; [30],0
same,"Oat, Wild plant response rating","[27]; 16 g ai/ha, 0 to 100 scale",0
same,"Oat, Wild plant response rating (0-100)",[27]; [30],0
